Results: paper PMC10571957, “αV-Integrin-Dependent Inhibition of Glioblastoma Cell Migration, Invasion and Vasculogenic Mimicry by the uPAcyclin Decapeptide” (Cancers, 2023)

Tests used:
U251-MG cells = assay: Vasculogenic mimicry (tube formation on Geltrex), U251-MG; type: cell-based, human; details: 24 h
Description: The tube formation assay was performed in 96-well plates pre-coated with 50 µL/well of Geltrex^TM (Thermofisher, Scientific, Waltham, MA, USA), and polymerized for 30 min at 37 °C. Briefly, 3 × 10^4 U87-MG, 1.5 × 10^4 U251, and 1 × 10^4 C6 cells/100µL/well were plated onto Geltrex^TM and monitored at 37 °C for the indicated times. The specific effectors were included at time 0. The formation of vascular-like structures by Geltrex^TM-plated U87-MG and U251-MG cells was monitored for 24 h, whereas C6 cells were tested for 16 h. The evaluation of the branching point number, defined as the intersection of at least 3 tubes [24], was performed using the Inverted Microscope DMI Leica 6000 for the U87-MG and U251-MG cells and the Inverted Microscope Axiovert 25 for the C6 cells. At the indicated times, the number of “branching points” was assessed in 4/5 random fields using the ImageJ 1.52a Software.
Figure 8 Vascular mimicry formation and VE-cadherin expression inhibited by uPAcyclin in U251-MG cells. […] (B) The quantitation of the branching point number is described in the legend to Figure 6B. […] The densitometric quantitation of VE-cadherin bands is shown (right panel) (* p-value < 0.05; *** p-value < 0.001).

U138-MG cells = assay: Cell viability/proliferation (Trypan blue), U138-MG; type: cell-based, human; details: 1 nM or 100 nM, 72–96 h
Description: Cell viability was tested in DMEM/10% FBS, in the presence of 1 nM or 100 nM uPAcyclin, either by Trypan blue exclusion or by thiazolyl blue tetrazolium bromide (MTT) assays, as specified in the figure legends. For the Trypan blue assay, 4 × 10^4 U87-MG, U251-MG, U138-MG, and C6 cells/sample were grown in 12-well plates, and followed for 24, 48 and 72 h. As a negative control, the cells were grown in a serum-free medium. Then, the cells were detached, stained with a 0.2% (w/v) Trypan blue solution, counted using a Burker chamber (T0 = 100%), and reported as number of viable cells/total.

**Q.** For “Ac-K^1P[ESPPEELK^10]-NH2 (sidechain bridge or staple) [uPAcyclin]”, which “branching number per field decreased to” value (U251-MG cells; 1 nM) is on record?
**A.** Its value is 20%.

**Q.** And the “branching number per field decreased to” value (U251-MG cells; 100 nM)?
**A.** Its value is 15%.

**Q.** What about the proliferation/viability (U138-MG cells) of the same substance?
**A.** The proliferation/viability was “unaffected by uPAcyclin, regardless of the concentration employed”.
